Measurements published in article PMC5991393, “Pharmacokinetic properties of a novel inosine analog, 4′-cyano-2′-deoxyinosine, after oral administration in rats” (PLoS ONE, 2018).

Tests used:
[1] = Protein binding by ultrafiltration, pooled human plasma; format: in vitro ADME; conditions: read-out: protein binding rate in human pooled plasma (converted)
Description: Protein binding assays were performed following a previous reported procedure, with minor modifications. In short, pooled human plasma, 600 μM HSA and 45 μM AGP were spiked with an aqueous solution of SK14-061a to produce a final SK14-061a concentration of 500 ng/mL, respectively. The unbound drug fraction was determined by ultrafiltration. Ultrafiltration was carried out using an Amicon® Ultra-0.5 mL centrifugal filter unit with an Ultracel®-30 membrane (Merck Millipore Company, MA). Samples of 500 μL were centrifuged at 14,000 g for 10 min. The SK14-061a concentration were determined by LC-MS without the SPE method.

[2] = Metabolism assay in vitro with rat liver microsomes; format: in vitro ADME; conditions: 100 ng/ml, 0.2 mg/ml rat liver microsomal protein, 60 min, 37°C
Description: SK14-061a (100 ng/ml) was incubated with the incubation mixtures (0.1 M potassium phosphate buffer (pH 7.4), 10 mM MgCl2, 1 mM EDTA, 1 mM NADP+, 10 mM glucose-6-phosphate, 10 units/ml glucose-6-phosphate dehydrogenase, and 0.2 mg/ml of rat liver microsomal protein). After a 5 min pre-incubation of the incubation mixture at 37°C, the metabolic reactions were initiated by the addition of SK14-061a. After 60 min, the SK14-061a was extracted from the incubation samples using the SPE method, and the SK14-061a concentration determined by LC-MS.

[3] = Clinical chemistry (liver and kidney toxicity) after oral SK14-061a; format: in vivo, Sprague-Dawley rats; conditions: p.o., 1 mg/kg, 9 hr after administration
Description: Sprague-Dawley rats (male, 230–270 g) were purchased from the Kyudo Co., Ltd. (Saga, Japan). All animals were maintained under conventional housing conditions, with food and water ad libitum in a temperature-controlled room with a 12 hr dark/light cycle. Maintenance of the animals and the experimental procedures performed on them were carried out in accordance with NIH guidelines. All animal experiments were reviewed and approved by the Animal Care and Use committee of Sojo University (Permit #: 2015-P-020). Eight rats were divided into two group: non-treatment group as a control (n = 4) and SK14-061a-treated group (p.o., 1 mg/kg, n = 4). […] The blood samples were centrifuged (3,000 g, 5 min) to obtain plasma for analysis of aspartate aminotransferase (AST), alanine aminotransferase (ALT), urea nitrogen (BUN) and creatinine. All plasma samples were stored at -80 °C prior to analysis by a commercial clinical testing laboratory (Oriental Yeast Co., Tokyo, Japan).

[4] = Tissue distribution to liver and kidney after oral administration; format: in vivo; conditions: rats, p.o., 1 mg/kg
Description: Rats were fasted for 12 h but with free access to water before dosing. Rats were orally (p.o.) administered a SK14-061a solution at a dose of 1 mg/kg. At stipulated times after the administration (15 min, 45 min, 90 min, 3, 4.5, 6 and 9 hr), venous blood samples were collected from tail vein using a heparinized syringe (0.25ml). The blood samples were centrifuged (3,000 rpm, 10 min) to obtain plasma. Urine samples were collected in a metabolic cage for 9 hr after the administration of the SK14-061a solution. After obtaining the last blood sample, all rats were sacrificed and kidneys and liver collected. To determine the time-dependent tissue distribution of SK14-061a, rats were sacrificed and organs (kidneys and liver) were collected at 1 and 3 hr after the oral administration of SK14-061a at a dose of 1 mg/kg. To calculate bioavailability, plasma concentrations of SK14-061a after intravenous administration (1 mg/kg) were also obtained at 3 min, 15 min, 30 min, 1, 3, 6 and 9 hr. Before the LC-MS analysis, plasma samples that were collected for pharmacokinetic studies were treated in the same manner as described in the "Validation assays" section. A portion of the liver and kidney tissues (about 500 mg) were homogenized in water (1 mL). The homogenized samples were subsequently ultracentrifuged at 100,000 g for 1 hr, and the supernatant collected. Urine samples were centrifuged (3,000 rpm, 10 min) and the supernatants were used in the analyses. All samples derived from organs and urine were processed using a Waters Oasis MCX 96 well plate in the same manner as was used for the plasma samples before the LC-MS analysis.

N#C[C@]1(CO)O[C@@H](n2cnc3c(O)ncnc32)C[C@@H]1O [SK14-061a, 4′-cyano-2′-deoxyinosine]
fraction unbound at 500 ng/mL [1]: ~0.363
non-metabolized form detected after incubation with rat microsomes [2]: 73.7 ± 10.7%
change of alanine aminotransferase (ALT) vs control rats [3]: no significant changes
change of aspartate aminotransferase (AST) vs control rats [3]: no significant changes
change of blood urea nitrogen (BUN) vs control rats [3]: no significant changes
change of creatinine vs control rats [3]: no significant changes
distribution to liver compared with kidney [4]: distributed at higher levels to the liver than the kidney
time of maximum distribution in the kidney ([4]; sampled at 1, 3 and 9 hr): 1 h
time of maximum distribution in the liver ([4]; sampled at 1, 3 and 9 hr): 1 h
